≈ marks a conversion by molar mass, not a printed value. Read-outs that look alike come from different tables or passages of the source. Residues, ends and D or L forms follow the SMILES beside them. No end group written: not given here. Tobramycin = aminoglycoside, conjugated at the peptide N-terminus; Neomycin = aminoglycoside, conjugated at the peptide N-terminus
Tests used:
P. aeruginosa = experiment: antimicrobial activity (MIC) of P-L-A conjugates; type: cell-based; conditions: for MIC: stationary
S. aureus = experiment: antimicrobial activity (MIC) of P-L-A conjugates; type: cell-based
[1] = cited from earlier work
E. coli [2] = experiment: antimicrobial activity (MIC) of P-L-A conjugates; type: cell-based
NIH/3T3 cells [3] = experiment: CellTox Green cytotoxicity assay; type: cell-based, mouse; conditions: concentrations up to 100 μM; 8 h incubation
Experimental: CellTox™ Green assay. The cytotoxicity of Pentobra was investigated on NIH/3T3 cells (ATCC) using CellTox™ Green assay (Promega, United States of America). Cells were seeded in a 96 well plate at a concentration of 2.5×10^3 cells/well. 100 μL of DMEM media were added to each well containing 0.2% CellTox green dye and varying concentrations of Pentobra, CPP or tobramycin and incubated for 8 and 24 h before the plate was read using an excitation wavelength of 485 nm and emission filter of 535 nm on a microplate reader (Beckman Coulter, DTX 880 Multimode Detector). A lysis solution, known to be toxic to the cells, was used as a positive control which represented the maximum dead cell signal obtainable from non-proliferating cells. The untreated cell population represented the maximal negative control signal obtainable at the end of an exposure period. The fluorescence values were normalized (from positive and negative controls) and converted to corresponding viability values.

NIH/3T3 cells [4] = experiment: LIVE/DEAD viability/cytotoxicity assay; conditions: 100 μM; 8 h
Experimental: The effect of Pentobra on the plasma membrane integrity was investigated on NIH/3T3 cells using the Live/Dead® Viability/Cytotoxicity Kit (Molecular Probes). Briefly, 50,000 cells/well were incubated in a 24-well plate and treated with 100 μM of tobramycin, Pen peptide or Pentobra for 8 h at 37° C. Then, the cells were stained with 100 μL of the live/Dead assay reagents (2 μM calcein and 4 μM ethidium homodimer), and incubated at 37° C. for 20 min. The labeled cells were counted using a Zeiss Axiovert Observer Z1 inverted fluorescent microscope (at least 160 cells were counted for each treatment).
In addition, the effect of Pentobra on the cell membrane integrity was evaluated using the LIVE/DEAD® cell viability assay. This assay simultaneously determined intracellular esterase activity and plasma membrane integrity using two distinct dyes: a) calcein, a membrane permeable polyanionic dye that must be hydrolyzed by intracellular esterases (dead cells lack active esterases) to produce a green fluorescence and b) ethidium homodimer, a membrane impermeable red fluorescent dye that can only penetrate cells with compromised membranes.

[5] = test system: Peripheral Blood Mononuclear Cells (PBMCs); experiment: cell viability assay (MTT section, CellTiter-GLO); type: cell-based, human; conditions: 26 μM; over 72 hr
Experimental: (§1) Cell proliferation experiments were performed in 96-well plates (5 replicates). 26 μM of Pentobra and Tobramycin treatments were initiated at 24 hours post-seeding for 3 days. Stocks and dilutions of PLX4032/vemurafenib (Plexxikon) and AZD6244/selumetenib (Selleck Chemicals) were made in dimethyl sulfoxide (DMSO). Three cell types (PBMCs, Keratinocytes and Sebocytes cell lines) were tested. Cells were quantified using CellTiter-GLO Luminescence (Promega) following the manufacturer's recommendations.

keratinocytes = experiment: cell viability assay (MTT section, CellTiter-GLO); type: cell-based, human; conditions: 26 μM; over 72 hr
Experimental: as §1

sebocytes = experiment: cell viability assay (MTT section, CellTiter-GLO); type: cell-based, human; conditions: 26 μM; over 72 hr
Experimental: as §1

Acinetobacter (AcB) = experiment: microbe, parasite or virus in culture; type: cell-based; conditions: isolate AcB, PM1434
From the text: (§2) Pentobra was screened against a broad panel of microbial pathogens, including strains of E. coli, MRSA, Klebsiella (Kleb), Acinetobacter (AcB), Vancomycin-Sensitive Enterococci (VSE) and Vancomycin-Resistant Enterococci (VRE), and specifically including E. faecalis samples. […] The experimenter reported the minimum inhibitory concentration (MIC) in mass units per unit volume (μg/mL) for each compound, and MIC data were converted into molar concentrations (μM) due to the large difference between the molecular weight of tobramycin (467.5 g/mol) and Pentobra (2277 g/mol).

E. coli [6] = experiment: microbe, parasite or virus in culture; type: cell-based
From the text: as §2

Klebsiella (Kleb) = experiment: microbe, parasite or virus in culture; type: cell-based; conditions: isolate Kleb, W6921701-1
From the text: as §2

MRSA = experiment: microbe, parasite or virus in culture; type: cell-based; conditions: isolate MRSA
From the text: as §2

[7] = test system: Vancomycin-Resistant Enterococci (VRE); experiment: microbe, parasite or virus in culture; type: cell-based
From the text: as §2

[8] = test system: Vancomycin-Sensitive Enterococci (VSE); experiment: organism not typed; type: cell-based
From the text: as §2

E. coli persisters = experiment: E. coli persister killing assay, pentobra plus adjuvant; type: cell-based; conditions: 10 mM arabinose; 1.5 hours
Experimental: Bacterial persisters were prepared essentially as described above, by growing an E. coli culture for 18-24 hours, at which point 100 μg/ml ampicillin was added for a 4-hour incubation to kill non-persisters. The cells were washed with M9 salts without carbon source, and subsequently diluted with M9 salts to an appropriate cell count for the killing assay. Approximately 10^6 E. coli cells per well were placed in a total volume of 100 μl in a 96-well plate on a shaker at 37° C. for 1.5 hours in the presence of each the following, respectively: Pentobra, Pentobra-plus-glucose (as adjuvant), tobramycin, tobramycin-plus-glucose (as adjuvant). A concentration series was used with 50, 25, 12.5, 6.25 and 0 μM for pentobra or tobramycin, and correspondingly 10, 5, 2.5, 1.25 and 0 mM for glucose. Incubation, dilution, and plating for colony assay determination were as described above. In a separate experiment, approximately 10^6 E. coli cells per well were placed in a total volume of 100 μl in a 96-well plate at 37° C. for 1.5 hours in the presence of each the following, respectively: pentobra, pentobra-plus-10 mM arabinose (as adjuvant), tobramycin, tobramycin-plus-10 mM arabinose (as adjuvant).
Persister cells were isolated and experiments to test for bactericidal activity were performed as described in Example 7 above.

Molecule: neomycin
- MIC (P. aeruginosa): 12.5 µM
- MIC (μM) S. aureus (mid-log) (S. aureus): 1.56 μM
- octanol→water partition coefficient Log P ([1]; aminoglycosides): −3.65

Molecule: Amphi Pentobra: Tobramycin-GWIRNQFRKIWQR [SEQ ID NO: 81], N-terminal conjugation
- MIC (μM) E. coli (mid-log) (E. coli [2]): 3.12 μM
- MIC (μM) P. aeruginosa (mid-log) (P. aeruginosa): 12.5 μM

Molecule: gentamycin
- octanol→water partition coefficient Log P ([1]; aminoglycosides): −2.47

Molecule: OC[C@H]1O[C@@](CO)(O[C@H]2O[C@H](CO)[C@@H](O)[C@H](O)[C@H]2O)[C@@H](O)[C@@H]1O [sucrose]
- octanol→water partition coefficient Log P ([1]; sugars, Mazzobre et. al. 2005): −3.30

Molecule: [H]/N=C(/N)N[C@H]1[C@H](O)[C@@H](O)[C@H](O[C@@H]2O[C@@H](C)[C@](O)(C=O)[C@H]2O[C@@H]2O[C@@H](CO)[C@H](O)[C@@H](O)[C@@H]2NC)[C@@H](N/C(N)=N\[H])[C@@H]1O [streptomycin]
- octanol→water partition coefficient Log P ([1]; aminoglycosides): −2.53

Molecule: CC[C@H](C)[C@H](NC(=O)[C@H](CCCCN)NC(=O)[C@@H](NC(=O)[C@H](CCC(N)=O)NC(=O)[C@H](CCCNC(=N)N)NC(=O)CCC(=O)OC[C@H]1O[C@H](O[C@@H]2[C@@H](O)[C@H](O[C@H]3O[C@H](CN)[C@@H](O)C[C@H]3N)[C@@H](N)C[C@H]2N)[C@H](O)[C@@H](N)[C@@H]1O)[C@@H](C)CC)C(=O)N[C@@H](Cc1c[nH]c2ccccc12)C(=O)N[C@@H](Cc1ccccc1)C(=O)N[C@@H](CCC(N)=O)C(=O)N[C@@H](CC(N)=O)C(=O)N[C@@H](CCCNC(=N)N)C(=O)N[C@@H](CCCNC(=N)N)C(=O)N[C@@H](Cc1c[nH]c2ccccc12)C(=O)O [Pentobra] (HELM PEPTIDE1{[NC[C@H]1O[C@H](O[C@H]2[C@H](O)[C@@H](O[C@H]3O[C@H](COC(=O)CCC(=O)[*:2])[C@@H](O)[C@H](N)[C@H]3O)[C@H](N)C[C@@H]2N)[C@H](N)C[C@@H]1O].R.Q.I.K.I.W.F.Q.N.R.R.W}$$$$V2.0)
- cytotoxic effect (NIH/3T3 cells [3]): did not show any cytotoxic effect
- cytotoxicity (percentage of red stained cells) (NIH/3T3 cells [4]): no statistical difference in cytotoxicity
- plasma membrane integrity of eukaryotic cells (NIH/3T3 cells [4]): did not induce any loss of plasma membrane integrity
- viability [5]: did not affect the viability
- viability (keratinocytes): did not affect the viability
- viability (sebocytes): did not affect the viability
- MIC (Acinetobacter (AcB)): 7 µM (≈ 16 µg/mL)
- MIC (E. coli [6]; isolate ATCC 25922, Ecoli (second entry)): 4 µM (≈ 9.12 µg/mL)
- MIC (E. coli [6]; isolate ATCC Ecoli, 25922 (first entry)): 2 µM (≈ 4.56 µg/mL)
- MIC (E. coli [6]; isolate Ecoli,YD461): 7 µM (≈ 16 µg/mL)
- MIC (Klebsiella (Kleb)): 7 µM (≈ 16 µg/mL)
- MIC (MRSA; F2806774): 0.056 mM (≈ 128 µg/mL)
- MIC (MRSA; H2867813): >0.056 mM
- MIC ([7]; isolate 24670, VRE^? (second entry)): 0.014 mM (≈ 31.9 µg/mL)
- MIC ([7]; isolate F6541102, VRE): >0.056 mM
- MIC ([7]; isolate H6926031, VRE*): 0.014 mM (≈ 31.9 µg/mL)
- MIC ([7]; isolate M6865034, VRE): 0.014 mM (≈ 31.9 µg/mL)
- MIC ([7]; isolate S3899836, VRE^? (second entry)): 0.014 mM (≈ 31.9 µg/mL)
- MIC ([7]; isolate VRE, 24670): 0.014 mM (≈ 31.9 µg/mL)
- MIC ([7]; isolate VRE, S3899836): 0.014 mM (≈ 31.9 µg/mL)
- MIC ([8]; isolate S4895552, VSE, LZD-R): 0.014 mM (≈ 31.9 µg/mL)
- MIC ([8]; isolate W7171143,VSE): 0.056 mM (≈ 128 µg/mL)
- MIC ([8]; isolate W7214342,VSE): 0.028 mM (≈ 63.9 µg/mL)
- MIC ([8]; isolate X4540299, VSE): 0.014 mM (≈ 31.9 µg/mL)
- MIC (μM) E. coli (mid-log) (E. coli [2]): 6.25 μM
- MIC (μM) P. aeruginosa (mid-log) (P. aeruginosa): 6.25-12.5 μM
- MIC (P. aeruginosa): 25 µM (≈ 57 µg/mL)
- MIC (μM) S. aureus (mid-log) (S. aureus): 25 μM

Molecule: NCC[C@H](O)C(=O)N[C@@H]1C[C@H](N)[C@@H](O[C@H]2O[C@H](CN)[C@@H](O)[C@H](O)[C@H]2O)[C@H](O)[C@H]1O[C@H]1O[C@H](CO)[C@@H](O)[C@H](N)[C@H]1O [amikacin]
- octanol→water partition coefficient Log P ([1]; aminoglycosides): −3.34

Molecule: RQIKIWFQNRRW [Pen peptide]
- cytotoxicity (percentage of red stained cells) (NIH/3T3 cells [4]): no statistical difference in cytotoxicity

Molecule: Reverse Pentobra: Tobramycin-GWRRNQFWIKIQR [SEQ ID NO: 95], N-terminal conjugation
- MIC (μM) E. coli (mid-log) (E. coli [2]): 3.12 μM
- MIC (μM) P. aeruginosa (mid-log) (P. aeruginosa): 12.5 μM

Molecule: NC[C@@H]1O[C@H](O[C@H]2[C@@H](O)[C@H](O[C@@H]3[C@@H](O)[C@H](N)C[C@H](N)[C@H]3O[C@H]3O[C@H](CO)[C@@H](O)[C@H](O)[C@H]3N)O[C@@H]2CO)[C@H](N)[C@@H](O)[C@@H]1O [paromomycin]
- octanol→water partition coefficient Log P ([1]; aminoglycosides): −3.27

Molecule: NeoGP11: Neomycin-GPWWFKWPRLI [SEQ ID NO: 123], N-terminal conjugation
- MIC (μM) P. aeruginosa (mid-log) (P. aeruginosa): 12.5 μM
- MIC (P. aeruginosa): 50 µM

Molecule: TobrGW12: Tobramycin-GWRNQIRKGWQR [SEQ ID NO: 135], N-terminal conjugation
- MIC (μM) P. aeruginosa (mid-log) (P. aeruginosa): 6.25 μM
- MIC (P. aeruginosa): 12.5 µM

Molecule: NC[C@H]1O[C@H](O[C@H]2[C@H](O)[C@@H](O[C@H]3O[C@H](CO)[C@@H](O)[C@H](N)[C@H]3O)[C@H](N)C[C@@H]2N)[C@H](O)[C@@H](O)[C@@H]1O [kanamycin]
- octanol→water partition coefficient Log P ([1]; aminoglycosides): −4.55

Molecule: OC[C@H]1O[C@H](O[C@H]2O[C@H](CO)[C@@H](O)[C@H](O)[C@H]2O)[C@H](O)[C@@H](O)[C@@H]1O [trehalose]
- octanol→water partition coefficient Log P ([1]; sugars, Mazzobre et. al. 2005): −3.77

Molecule: Neo13: Neomycin-GFHGVKNLARRIL [SEQ ID NO: 109], N-terminal conjugation
- MIC (μM) P. aeruginosa (mid-log) (P. aeruginosa): 12.5 μM
- MIC (P. aeruginosa): 50 µM
- MIC (μM) S. aureus (mid-log) (S. aureus): 12.5 μM

Molecule: O=C[C@@H](O)[C@H](O)[C@H](O)CO [Arabinose, arabinose]
- effect on killing potency of pentobra (E. coli persisters): enhanced pentobra, but to a lesser extent

— patent US20170348337A1, “MULTIFUNCTIONAL MEMBRANE-ACTIVE AMINOGLYCOSIDE-PEPTIDE CONJUGATES” (priority 2014, published 2017)
